Patent US20070128285A1, “Pharmaceutical composition for oral administration” (priority 2005, published 2007)

Experiment: Stability of setron drug aqueous solutions (0.1 w/w %) at pH 8 to 3, stored at 40° C. for three months
Type: physicochemical
Settings: 0.1 w/w % aqueous solution
Method: The present inventors have investigated the stability of each setron drug (azasetron, granisetron, tropisetron, ramosetron, or ondansetron) in the aqueous solution of pH 8 to3. That is, an aqueous solution of each setron drug (0.1 w/w %) was adjusted to various pH values (pH 8 to 3) with hydrochloric acid or sodium hydroxide. After storing at 40° C. for three months, the external appearance and taste of the solution were observed. As a result, for each of the setron drugs, the aqueous solution of pH 8 is colored faint yellow, but the aqueous solution of pH 3 to 7 is colorless.

[1] = pH 3 to 7, stored at 40° C. for three months
[2] = pH 8, stored at 40° C. for three months

Row | Structure (SMILES) | external appearance (color) of the aqueous solution [1] | external appearance (color) of the aqueous solution [2]
1 | CN1C(=O)COc2c(C(=O)NC3CN4CCC3CC4)cc(Cl)cc21 (stereo not shown) [azasetron] | colorless | faint yellow
2 | CN1C2CCCC1CC(NC(=O)c1nn(C)c3ccccc13)C2 (stereo not shown) [granisetron] | colorless | faint yellow
3 | Cc1nccn1CC1CCc2c(c3ccccc3n2C)C1=O (stereo not shown) [ondansetron] | colorless | faint yellow
4 | Cn1cc(C(=O)[C@@H]2CCc3nc[nH]c3C2)c2ccccc21 [ramosetron] | colorless | faint yellow
5 | CN1[C@@H]2CC[C@H]1C[C@@H](OC(=O)c1c[nH]c3ccccc13)C2 [tropisetron] | colorless | faint yellow
